Measured values reported in patent US20230391776A1, “AMIDE OXAZOLE COMPOUND” (MEDSHINE DISCOVERY INC., priority 2020, published 2023).

Legend:
[1] = tested on: TNF-α production in THP-1 cells; assay: TNF-α ELISA in LPS-stimulated THP-1 cells; type: cell-based; details: Homo sapiens, TNF-α in supernatant, 150 ng/mL LPS, 18 hours
Method: THP-1 human acute single cell leukemia cells were purchased from ATCC (Cat #TIB-202) and cultured at 37° C. in 5% CO2 incubator. The composition of medium was RPMI1640 (Gibco, Cat #22400-105), and the supplementary compositions were 10% FBS (Gibco, Cat #10091148); 1% PenStrep (Gibco, Cat #15140); 0.05 mM β-mercaptoethanol (Sigma, Cat #M6250).
TNF-α Elisa kit was used to detect the content of TNF-α in cell culture supernatant samples. TNF-α was produced by stimulating THP-1 cells with 150 ng/mL LPS (Sigma, Cat #L6529).
THP-1 cells cultured normally at logarithmic growth period were seeded in a 96-well plate (Corning #3599) at a certain concentration (1*10^5/100 μL) and then put into a cell incubator for incubation. After two hours, 16.7 μL of different concentrations of the compound to be tested (8*final concentration) were added and incubated in an incubator. After one hour, 16.7 μL of 1200 ng/mL LPS was added and incubated in an incubator. After 18 hours, the culture supernatant samples were collected by centrifugation, and the content of TNF-α could be detected by TNF-α Elisa kit. Finally, OD signals (OD450-OD570) were read on envision board reader.
The OD450-OD570 signal value was converted into a percentage inhibition rate.
Inhibition rate %=(ZPE−sample)/(ZPE−HPE)*100.
“HPE” referred to the OD450-OD570 signal value of the control well without LPS stimulated cells, and “ZPE” referred to the OD450-OD570 signal value of the control well with LPS stimulated cells. The IC50 value of the compound was calculated by XLFit in the excel add-in.
Y=Bottom+(Top−Bottom)/(1+(IC50/X)^HillSlope). Equation: […]

[2] = tested on: OCI-LY10 human diffuse large B lymphoma cells; assay: OCI-LY10 cell proliferation (Cell Titer Glo); type: cell-based; details: 72 hours
Method: (§1) The tumor cell lines OCI-LY10 and TMD-8 were used to detect the effect of the compound of the disclosure on inhibiting tumor cell proliferation in vitro.
OCI-LY10 human diffuse large B lymphoma cells, from Nanjing Cobioer Biotechnology Co., Ltd
(§2) The compound was diluted with DMSO to a final concentration of 10 mM. The compound was freshly prepared and ready for use.
(§3) a) Logarithmic growth period cells were collected, counted, resuspended with complete culture medium, the cell concentration was adjusted to an appropriate concentration (determined according to the results of cell density optimization test), inoculated on 96-well plates, and 100 μL of cell suspension was added to each well. Cells were incubated in an incubator with 37° C., 100% relative humidity and 5% CO2 for 24 hours.
(§4) b) The compound to be tested was diluted to 50 μM with culture medium and then gradient diluted for 8 times. Cells were added with 25 μL/well. The final concentrations of the compound were from […], 3-fold gradient dilution, with a total of 9 concentration points.
(§5) c) Cells were incubated in an incubator with 37° C., 100% relative humidity and 5% CO2 for 72 hours;
(§6) d) 60 μL of CTG test reagent was added to the culture medium.
(§7) e) Shaked fully and reacted in the dark for 10 min. Luminescence was measured on ENVISION and the inhibition rate was calculated.
(§8) Cell growth inhibition rate %=[(RLUv−RLUs)/(RLUv−RLUb)]×100%

human IRAK4 = target: T1, human IRAK4 (Homo sapiens, UniProt Q9NWZ3); assay: In vitro IRAK4 kinase activity, 33P isotope-labeled kinase assay; type: biochemical
T1 construct: purchased Reaction Biology Corp
T1 sequence (Q9NWZ3 1-460): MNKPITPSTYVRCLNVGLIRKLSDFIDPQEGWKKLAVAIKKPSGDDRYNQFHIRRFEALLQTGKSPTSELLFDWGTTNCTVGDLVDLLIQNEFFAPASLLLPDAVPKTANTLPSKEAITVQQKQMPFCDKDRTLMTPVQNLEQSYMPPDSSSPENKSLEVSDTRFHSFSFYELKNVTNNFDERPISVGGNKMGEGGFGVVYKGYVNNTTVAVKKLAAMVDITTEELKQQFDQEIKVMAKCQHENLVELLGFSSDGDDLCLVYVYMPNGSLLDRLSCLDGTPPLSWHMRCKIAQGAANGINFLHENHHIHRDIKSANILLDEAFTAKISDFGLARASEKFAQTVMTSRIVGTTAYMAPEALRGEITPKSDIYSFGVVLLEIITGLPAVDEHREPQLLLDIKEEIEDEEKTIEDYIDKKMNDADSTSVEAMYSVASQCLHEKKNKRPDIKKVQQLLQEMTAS
Method: The IC50 values were determined using ^33P isotope-labeled kinase activity assay (Reaction Biology Corp) to evaluate the inhibitory ability of the tested compounds on human IRAK4.
(§9) Buffer conditions: 20 mM Hepes (pH 7.5), 10 mM MgCl2, 1 mM EGTA, 0.02% Brij35, 0.02 mg/mL BSA, 0.1 mM Na3VO4, 2 mM DTT, 1% DMSO.
Test procedure: At room temperature, the tested compound was dissolved in DMSO and a 10 mM solution was prepared for use. The substrate was dissolved in a newly prepared buffer solution, and the tested IRAK4 kinase was added thereto and mixed evenly. The DMSO solution dissolved with the tested compound was added to the above mixed evenly reaction solution using acoustic technique (Echo 550). After incubation for 15 minutes, ^33P-ATP was added to initiate the reaction. The reaction was carried out at room temperature for 120 minutes, and the reaction mixture was dropped on P81 ion exchange filter paper (Whatman #3698-915). The filter paper was washed repeatedly with 0.75% phosphoric acid solution, and the radioactivity of phosphorylated substrate residues on the filter paper was determined. The kinase activity data were expressed by comparing the kinase activity of the group containing the tested compound with the kinase activity of the blank group (only containing DMSO), and the IC50 value was obtained by curve fitting by Prism4 software (GraphPad), the experimental results were shown in Table 2.

human BTK = target: T2, human BTK (Homo sapiens, UniProt Q06187); assay: In vitro BTK kinase activity, 33P isotope-labeled kinase assay; type: biochemical
T2 construct: purchased Reaction Biology Corp
Method: The IC50 values were determined using ^33P isotope-labeled kinase activity assay (Reaction Biology Corp) to evaluate the inhibitory ability of the tested compounds on human BTK.
as §9
Test procedure: At room temperature, the tested compound was dissolved in DMSO and a 10 mM solution was prepared for use. The substrate was dissolved in a newly prepared buffer solution, and the BTK kinase was added thereto and mixed evenly. The compound dissolved in DMSO was added to the kinase reaction mixture through Echo 550 (Acoustic technology; Nanoliter range). After incubation for 20 minutes at room temperature, ^33P-ATP was added to initiate the reaction. The reaction was carried out at room temperature for 2 hours, and the radioactivity of the reaction solution drop was detected by filtration-binding method with P81 ion exchange filter paper. The kinase activity data were expressed by comparing the kinase activity of the group containing the tested compound with the kinase activity of the blank group (only containing DMSO), and the IC50 value was obtained by curve fitting by Prism4 software (GraphPad), the experimental results were shown in Table 3.

[3] = tested on: TMD-8 human diffuse large B lymphoma cells; assay: TMD-8 cell proliferation (Cell Titer Glo); type: cell-based; details: TMD8, 72 hours
Method: as §1
TMD-8 human diffuse large B lymphoma cells, from Nanjing Cobioer Biotechnology Co., Ltd
as §2, §3, §4, §5, §6, §7, §8

OCI-LY3 cell line = assay: OCI-LY3 cell proliferation (CTG); type: cell-based; details: Homo sapiens, 72 hours
Method: The tumor cell line OCI-LY3 was used to detect the effect of the compound of the disclosure on inhibiting tumor cell proliferation in vitro.
The tumor cell line used in this experiment was provided by Nanjing Cobioer Biotechnology Co., Ltd. See Table 6 below for specific information.
The OCI-LY3 cell line was cultured in the corresponding medium at 37° C. and 5% CO2, and the logarithmic growth period cells were used for experimental planking. The cells were collected and centrifuged at 800 rpm for 5 minutes, and the culture medium was re-suspended and spread in a 96-well plate. After being cultured overnight in 37° C., 5% CO2 incubator, drugs with different concentration gradients (10 μL of prepared diluent of test compound was added) were added, and incubated in 37° C., 5% CO2 incubator for 72 hours. The cell culture plate was incubated with CTG reagent at room temperature in the dark for 30 minutes and return to room temperature. CTG solution was added into the biosafety cabinet in the dark 100 μL/well, and was shaken and mixed evenly on plate shaker in the dark for 2 minutes, and incubated at room temperature in the dark for 10 minutes. The luminous value was read and recorded with Perkin Elmer Envision instrument.
The luminous value of the blank control group was subtracted from the luminous value measured at each drug concentration, the ratio of this value to DMSO group was taken as the cell inhibition rate (%). GraphPad software was used, the logarithm of drug concentration (log drug concentration) versus inhibition rate was plotted, and the IC50 value and 95% confidence value were automatically fitted and calculated by log (inhibitor) vs. response-variable slop (four parameters) algorithm of nonlinear regression by software.

[4] = tested on: human diffuse large B lymphoma TMD8 cell subcutaneous xenograft; assay: TMD8 subcutaneous xenograft tumor model (WX017 and WX027 study); details: 20 mg/kg QD PO, 11th day after administration
Method: a) TMD8 cells were cultured in RPMI-1640 medium containing 10% FBS and maintained in a 37° C. saturated humidity incubator with 5% CO2. TMD8 cells in logarithmic period were collected, resuspended in RPMI-1640 basal medium, and Matrigel was added at 1:1, and the cell concentration was adjusted to 4×10^7/mL. Under aseptic conditions, 0.1 mL of cell suspension was inoculated under the skin of the right back of SCID mice, and the inoculation concentration was 4×10^6/0.1 mL/mouse.
When the tumor grew to a certain size, the animals with too large, too small or irregular tumor shape were excluded, and the animals with tumor volume of 108.76-188.11 mm^3 were selected. According to the tumor volume, the animals were divided into 10 groups by random block method, with 6 mice in each group, and the average tumor volume was about 152.11 mm^3. The health status and death of animals were monitored every day, and routine examinations included observing the effects of tumor growth and drug treatment on daily behaviors of animals, such as behavioral activities, food intake and water intake, weight change (weight was measured twice a week), tumor size (tumor volume was measured twice a week), appearance signs or other abnormal conditions.
The formula for calculating tumor volume (TV) was: 1/2×a×b^2, where a and b were the measured length and width of the tumor respectively. The formula for calculating the tumor inhibition rate TGI (%)=[1−(average tumor volume at the end of administration in a treatment group-average tumor volume at the beginning of administration in the treatment group))/(average tumor volume at the end of treatment in solvent control group-average tumor volume at the beginning of treatment in solvent control group)]×100%.
In this study, the experimental data were all expressed by Mean±SEM. Statistical analysis was based on the data of RTV at the end of the experiment and analyzed by IBM SPSS Statistics software. T test was used to analyze the comparison between two groups, and one-way ANOVA was used to analyze the comparison between three or more groups. If the variance was even (there was no significant difference in F value), Tukey's method was used to analyze it, and if the variance was uneven (there was significant difference in F value), Games-Howell method was used to test it. p<0.05 was deemed to a significant difference.

[5] = tested on: human diffuse large B lymphoma TMD8 cell subcutaneous xenograft; assay: TMD8 subcutaneous xenograft tumor model (WX009 study); type: in vivo, SCID mouse; details: 20 mg/kg QD PO, 18th day after administration
Text: The formula for calculating the tumor inhibition rate TGI (%)=[1−(average tumor volume at the end of administration in a treatment group-average tumor volume at the beginning of administration in the treatment group))/(average tumor volume at the end of treatment in solvent control group-average tumor volume at the beginning of treatment in solvent control group)]×100%.

T2 sequence (Q06187 whole entry): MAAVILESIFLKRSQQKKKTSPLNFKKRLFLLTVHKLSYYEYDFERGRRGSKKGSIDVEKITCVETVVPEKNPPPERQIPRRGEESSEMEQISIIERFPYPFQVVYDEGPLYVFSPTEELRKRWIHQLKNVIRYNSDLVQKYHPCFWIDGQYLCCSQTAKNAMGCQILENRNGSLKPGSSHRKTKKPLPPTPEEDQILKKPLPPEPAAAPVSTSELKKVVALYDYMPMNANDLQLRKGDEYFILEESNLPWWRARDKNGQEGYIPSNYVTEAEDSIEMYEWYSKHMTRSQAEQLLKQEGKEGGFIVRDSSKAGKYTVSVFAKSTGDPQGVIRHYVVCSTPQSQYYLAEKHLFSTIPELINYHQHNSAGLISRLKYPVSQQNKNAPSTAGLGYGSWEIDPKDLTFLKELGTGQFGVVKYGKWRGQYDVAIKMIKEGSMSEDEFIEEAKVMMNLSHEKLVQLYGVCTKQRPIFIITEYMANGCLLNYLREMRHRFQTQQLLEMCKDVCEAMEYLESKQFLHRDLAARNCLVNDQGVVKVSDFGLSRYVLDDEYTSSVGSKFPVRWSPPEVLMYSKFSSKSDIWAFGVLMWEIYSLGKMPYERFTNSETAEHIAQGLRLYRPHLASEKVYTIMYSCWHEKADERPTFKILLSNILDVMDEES

| Compound | IC50 [1] [nM] | IC50 [2] [nM] | IC50 (human IRAK4) [nM] | IC50 (human BTK) [nM] | IC50 [3] [nM] | IC50 (OCI-LY3 cell line) [nM] | TGI [4] [%] | TGI [5] [%] | TGI ([5]; listed as Ibrahim) [%] |
| --- | --- | --- | --- | --- | --- | --- | --- | --- | --- |
| CS(=O)(=O)CCc1cn2cc(NC(=O)c3coc(-c4ccnc(N)c4)n3)c(-c3ccccc3)cc2n1 [WX013] | 6 | 8 | 1.8 | 2.9 | 20 | 34 | – | – | – |
| C=CC(=O)N1CCC[C@@H](n2nc(-c3ccc(Oc4ccccc4)cc3)c3c(N)ncnc32)C1 [ibrutinib, reference compound] | – | – | – | – | – | – | 39 | 12.95 | 13 |
